Holding throughout (experiment): NCI tumour cell line growth inhibition, 48 h
For test [1], the system named is HOP-62 NSCLC.
Test [2] concerns NCI-H522 lung.
Test [3] relates to RXF 393 renal.
Test [4] concerns OVCAR-8 ovarian.
The subject of test [5] is SK-MEL-28 melanoma.
Test [6] relates to NCI/ADR-RES ovarian.
In test [7] the test system is A549 NSCLC.
In test [8] the test system is UO-31 renal.
For test [9], the system named is M14 melanoma.
The test system of test [10] is OVCAR-3 ovarian.

Molecules are shown by their SMILES.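 Briefly, cells in 96-well plates were exposed to five compound concentrations for 48 h, and endpoints were estimated by linear interpolation. GI50: concentration for 50% inhibition of growth. TGI denotes the concentration required for complete inhibition of growth.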

With `COc1ccc(-c2cnc(SCC(=O)c3c(C)n(C)n(-c4ccccc4)c3=O)n2-c2ccc(OC)cc2)cc1`, the GI50 in test [1] was 28.9 µM; in test [2], > 50 µM; in [3], > 50 µM; in test [4], > 50 µM; in test [5], > 50 µM; in test [6], > 50 µM. Also, the GI50 in test [7] was > 50 µM; in test [8], > 50 µM; in test [9], 35.2 µM; in test [10], > 50 µM. The TGI in [1], in test [2], in test [3], in test [4], in test [5] and in [6] was > 50 µM each time. Also, the TGI in test [7], in test [8], in [9] and in [10] was > 50 µM throughout.
On to `O=C(/C=C/c1ccccc1)Nc1ncc(Cc2ccccc2)s1`, for which the GI50 in [1] is 0.398 µM; in test [2] it was 0.112 µM; in [3], 0.267 µM; in test [4], 0.488 µM; in [5], 1.7 µM; in [6] it was 0.178 µM. The GI50 in test [7] was 0.322 µM; in [8] it was 0.463 µM; in test [9] it was 0.114 µM; in test [10] it was 0.258 µM. For the same molecule, the TGI was > 39 µM in test [1]; 3.83 µM in [2]; 1.59 µM in test [3]; > 40.9 µM in test [4]; > 100 µM in test [5]; 5.5 µM in [6]. Also, the TGI is > 55.1 µM in [7], 23.3 µM in [8], 3.03 µM in test [9] and 1.44 µM in [10].
For the molecule `C/C(=N\N)C(CN1CCCCC1)C(c1ccccc1)c1c(O)c2ccccc2oc1=O` (configuration not stated), the TGI in test [1], in test [2], in test [3], in test [4], in test [5] and in test [6] was > 100 µM each time. In addition, the TGI in test [7], in test [8], in test [9] and in [10] was > 100 µM each time.
As for `COc1cc(/C=C/C(=O)c2ccc(F)cc2)ccc1OCCCCOc1cc2c(cc1OC)C(=O)N1CCCC1C=N2` (configuration not stated), the GI50 in [1] is 0.952 µM; in test [2] it was 1.64 µM; in test [3] it was 1.07 µM; in test [4], 1.55 µM; in [5], 15.3 µM; in test [6], 0.936 µM. Further, the GI50 is 2.46 µM in test [7], 0.891 µM in [8], 2.11 µM in test [9] and 0.808 µM in [10]. Also, the TGI in test [1] is 12.5 µM; in test [2] it was 4.35 µM; in test [3], 9.21 µM; in test [4] it was > 20.2 µM; in [5], > 100 µM; in test [6], > 26.4 µM. The TGI is > 21.9 µM in [7], 4.08 µM in [9] and 2 µM in test [10].
Consider `O=S1(=O)OCc2ccccc21`, for which the TGI in test [1] is 42.3 µM; in test [2], > 100 µM; in [3], > 100 µM; in [4], > 100 µM; in [5], > 100 µM; in test [6] it was > 100 µM. In addition, the TGI in test [7], in [8], in [9] and in test [10] was > 100 µM throughout.
On to `CCN(CC)c1ccc(CNc2cc(C)nc3ccc(OC)cc23)cc1`, for which the GI50 in test [1] is 7.24 µM; in test [2], 1.51 µM; in test [3], 2.02 µM; in test [4], 4.05 µM; in [5] it was 1.86 µM; in test [6], 3.08 µM. The GI50 is 6.41 µM in test [7], 1.75 µM in test [8], 1.89 µM in test [9] and 3.12 µM in test [10]. Moreover, the TGI amounted to 21 µM in test [1]; 3.28 µM in test [2]; 3.87 µM in test [3]; 15.9 µM in test [4]; 3.38 µM in test [5]; 14.3 µM in [6]. Further, the TGI in test [7] was found to be 21.2 µM; in [8], 6.23 µM; in test [9], 3.7 µM; in test [10], 12.8 µM.
`COc1ccc(C2CC(c3ccc4ccccc4c3)=NN2/C=C2\SC(=S)N(NC(=O)Cc3ccccc3Nc3c(Cl)cccc3Cl)C2=O)cc1` (configuration not stated): the GI50 in test [1] is 0.958 µM; in [2], 0.372 µM; in test [3] it was 0.282 µM; in test [4], 0.693 µM; in test [5], 4.45 µM; in [6], 0.421 µM. The GI50 in [7] was 0.507 µM; in test [8], 0.354 µM; in test [9], 0.4 µM; in test [10], 0.343 µM. The TGI in [1] was > 49.9 µM; in test [2] it was 4.76 µM; in test [3], 1.16 µM; in test [4], > 100 µM; in test [5], > 50 µM; in test [6] it was > 34.5 µM. The TGI is > 47.2 µM in test [7] and 5.4 µM in test [9].
For `COc1ccc(C(=O)OC2C(OC3C(O)COC(O[C@H]4C[C@H]5[C@@H]6CC=C7C[C@@H](O)CC[C@]7(C)[C@H]6CC[C@]5(C)[C@H]4[C@H](C)C(=O)CCC(C)C)C3OC(=O)C(C)C)OCC(O)C2O)cc1` (some centres not stated), the GI50 was 0.0129 µM in test [1]; 0.0306 µM in [2]; < 0.00275 µM in [3]; 2.82 µM in [4]; 0.011 µM in [5]; 3.32 µM in test [6]. In addition, the GI50 in test [7] is 0.0224 µM; in test [8], 0.0115 µM; in test [9], 0.00812 µM; in test [10], 0.884 µM. For the same molecule, the TGI stood at 1.45 µM in [1]; 0.273 µM in [2]; 0.0158 µM in test [3]; 8.4 µM in [4]; 0.0612 µM in [5]; 7.2 µM in [6]. Further, the TGI in test [7] amounted to 4.58 µM; in [8], 0.067 µM; in [9], 0.0389 µM; in test [10], 5.88 µM.
`COc1ccc(-c2cc(=O)c3c(OC)c(O)c(OC)cc3o2)cc1`: the TGI in test [1], in test [2], in test [3], in [4], in [5] and in test [6] was > 100 µM in each case. For the same molecule, the TGI in [7], in test [8], in [9] and in test [10] was > 100 µM in each case.

(Values after PubChem BioAssay (NCI).)
